Data on three compounds can be found in patent publication US8614054B2, “Laser scanning cytometry mediated analysis of therapeutic efficacy in tumors” (Board of Regents, The University of Texas System, priority 2000, dated 2013).

Assay [1] has as its system tumor endothelial cells. Briefly: LSC analysis of endothelial cell death (CD31/TUNEL double staining) in treated mouse tumors. Format: in vivo. As to conditions: mouse liver metastasis model, treated vs untreated tumors. From the text: (§1) Tumor specimens or patient biopsies are obtained prior to and several time points post-treatment such as 1, 3, and 7 days or more. Tissue sections are stained using an immunofluorescent double-labeling technique which permits the simultaneous detection of endothelial cells and fluorescent markers of apoptosis such as TUNEL or caspase activity. The tissue sections are scanned by the LSC and cell data is collected by the instrument's software. For the first scan, the Wincyte software is setup by the user to contour on the cell nuclei based on propidium iodide staining. Contouring on the cell nuclei provides the total cell number of the tissue specimen and creates a ‘tissue map’ which permits selective gating of the tumor cells. In addition, contouring on the cell nuclei permits the software to identify endothelial cells (based on CD31 and/or CD34, Pharmingen, Inc., fluorescent staining) and/or TUNEL positive cells (based on fluorescent TUNEL, Promega, Inc.). […] A substantial increase in endothelial cell death post-treatment will indicate drug efficacy to induce apoptosis in tumor endothelial cells. Subsequent to endothelial cell death is the decay of the tumor vasculature. For the second scan, the Wincyte software is setup by the user to contour on the blood vessels of the tumor. The contouring is based on the fluorescence of the endothelial cell markers (CD31 and/or CD34). […]

Assay [2] deals with tumor vasculature. Briefly: LSC-mediated blood vessel contouring (blood vessel density) in mouse tumors. Format: in vivo. To be noted: treated mouse tumor, Cy5 label; untreated mouse tumor 52%. The method, then: (§2) Blood vessel density is defined herein as the number of blood vessels as determined from analyzing the fluorescence emission of markers bound to the endothelial cells divided by the total number of cells in the tumor as determined from analyzing the fluorescence emission of markers bound to the cell nuclei. Endothelial cell density is measured because it is a more sensitive marker. Breaks in fluorescence of the endothelial cell stain will delimitate individual blood vessels.
After the scan is complete, the gates are set on the scattergram so that the collected data can be analyzed. Relocation of a cell is used to visualize which cells are positive, i.e. CD31 and/or TUNEL positive. […] The data file can be replayed to obtain the number of cells in each quadrant that are representative of the total percent of all cells counted. […] For BVD, the instruments software is set to contour on CD31 fluorescence. […] The instrument then scans the same area but counts the number of blood vessels, i.e. a single vessel is counted by contiguous fluorescent light. […] BVD can be calculated for that sample by dividing the blood vessel count by the total number of tumor endothelial cells. Endothelial cell density is determined by dividing the total number of endothelial cells by the total number of tumor cells. […]

For another assay, the system named is breast tumor cells. As to conditions: breast cancer patients, following neoadjuvant chemotherapy (FIG. 14).
The subject of the next assay is tumor cells. Briefly: LSC analysis of tumor cell death in patient biopsies pre and post-treatment with endostatin. In kind it is in vivo, human. As to conditions: for change in tumor cell death: pre vs post-treatment. The source says: Tumor specimens or patient biopsies are obtained prior to and several time points post-treatment such as 1, 3, and 7 days or more. Tissue sections are stained using an immunofluorescent double-labeling technique which permits the simultaneous detection of endothelial cells and fluorescent markers of apoptosis such as TUNEL or caspase activity. The tissue sections are scanned by the LSC and cell data is collected by the instrument's software. For the first scan, the Wincyte software is setup by the user to contour on the cell nuclei based on propidium iodide staining. Contouring on the cell nuclei provides the total cell number of the tissue specimen and creates a ‘tissue map’ which permits selective gating of the tumor cells. In addition, contouring on the cell nuclei permits the software to identify endothelial cells (based on CD31 and/or CD34, Pharmingen, Inc., fluorescent staining) and/or TUNEL positive cells (based on fluorescent TUNEL, Promega, Inc.). […] A substantial increase in endothelial cell death post-treatment will indicate drug efficacy to induce apoptosis in tumor endothelial cells. Subsequent to endothelial cell death is the decay of the tumor vasculature. For the second scan, the Wincyte software is setup by the user to contour on the blood vessels of the tumor. The contouring is based on the fluorescence of the endothelial cell markers (CD31 and/or CD34). […] If the treatment targets the tumor vasculature, the number of blood vessels in the tumor will be dramatically lower post-treatment.
Biopsies at different tumor sites were obtained from each of the five patients prior to and after treatment. The biopsies were stained with TUNEL and cy5 labeled antibody to CD31/[…]. […] FIGS. 8-9 represent LSC data from two of the patients. […] The data obtained from contouring on the blood vessels is shown in FIG. 12 where a representative image of blood vessel staining (CD31) is shown.
This gives a difference of 0.23. The 95% CI for this difference is (0.00,0.47), p=0.050 and is significant.

The next assay has as its system endothelial cells. Briefly: LSC quantification of endothelial cell density (ED) in tumor biopsies. Format: in vivo, human. As to conditions: following 56 days of treatment. The method, then: FIGS. 17A-B—FIG. 17A Is a diagram showing the concept of quantifying endothelial cells in a tumor biopsy using the LSC. The LSC is used to count endothelial and tumor cells independently in a biopsy. Endothelial cell density (ED) is calculated by dividing the total number of endothelial cells by the total number of tumor cells. FIG. 17B Graph showing that Endostatin decreased ED 1.3 fold following 56 days of treatment.
After the scan is complete, the gates are set on the scattergram so that the collected data can be analyzed. Relocation of a cell is used to visualize which cells are positive, i.e. CD31 and/or TUNEL positive. Visualization allows the gate on the scattergram to be moved so that the positive cells fall in the appropriate quadrant. The data file can be replayed to obtain the number of cells in each quadrant that are representative of the total percent of all cells counted. […] For BVD, the instruments software is set to contour on CD31 fluorescence. […] The instrument then scans the same area but counts the number of blood vessels, i.e. a single vessel is counted by contiguous fluorescent light. […] BVD can be calculated for that sample by dividing the blood vessel count by the total number of tumor endothelial cells. Endothelial cell density is determined by dividing the total number of endothelial cells by the total number of tumor cells.

The test system of assay [3] is tumor vasculature. Briefly: LSC-mediated blood vessel contouring (blood vessel density) of patient biopsies pre and post-treatment with endostatin. Format: in vivo, human. The protocol:
as §2
After the scan is complete, the gates are set on the scattergram so that the collected data can be analyzed. Relocation of a cell is used to visualize which cells are positive, i.e. CD31 and/or TUNEL positive. Visualization allows the gate on the scattergram to be moved so that the positive cells fall in the appropriate quadrant. The data file can be replayed to obtain the number of cells in each quadrant that are representative of the total percent of all cells counted. […] For BVD, the instruments software is set to contour on CD31 fluorescence. In Examples 2-7, this is by selecting the long red filter during the setup. The instrument then scans the same area but counts the number of blood vessels, i.e. a single vessel is counted by contiguous fluorescent light. […] BVD can be calculated for that sample by dividing the blood vessel count by the total number of tumor endothelial cells. Endothelial cell density is determined by dividing the total number of endothelial cells by the total number of tumor cells.
Tumor specimens or patient biopsies are obtained prior to and several time points post-treatment such as 1, 3, and 7 days or more. Tissue sections are stained using an immunofluorescent double-labeling technique which permits the simultaneous detection of endothelial cells and fluorescent markers of apoptosis such as TUNEL or caspase activity. The tissue sections are scanned by the LSC and cell data is collected by the instrument's software. […] The contouring is based on the fluorescence of the endothelial cell markers (CD31 and/or CD34). […]

The test system of assay [4] is tumor endothelial cells. Briefly: LSC analysis of tumor endothelial cell death in patient biopsies pre and post-treatment with endostatin. In kind it is in vivo, human.
Source text: as §1

Method for breast tumor cells: FIGS. 14A-E—Biopsies taken from breast cancer patients pre and post-treatment (24, 48, 66 hours) following neoadjuvant chemotherapy were processed and stained for fluorescent TUNEL. The number of TUNEL positive cells were counted and results are represented as a percent of total cells counted. FIGS. 14F-H—Biopsies taken from breast cancer patients pre, 24, and 48 hours following neoadjuvant chemotherapy were processed and stained for fluorescent TUNEL. FIG. 14F—Representative image of tumor cell apoptosis in a human breast tumor biopsy pre- and post-chemotherapy (48 hrs.) before it is scanned by the LSC. […] FIG. 14G—Representative image of tumor cell apoptosis in a human breast tumor biopsy pre- and post-chemotherapy (48 hrs.) before it is scanned by the LSC. […] FIG. 14H—Bar graph showing the percent change in apoptotic tumor cells post-chemotherapy (24 & 48 hrs.).

`Cc1[nH]c(/C=C2\C(=O)Nc3ccccc32)c(C)c1CCC(=O)O` [SU6668]: in the assay with tumor endothelial cells [1], the endothelial cell death entry is on record as “significant endothelial cell death”. The same compound displayed a blood vessel density in the assay on tumor vasculature [2] of 55%.
For `CC(=O)O[C@H]1C(=O)[C@@]2(C)[C@H]([C@H](OC(=O)c3ccccc3)[C@]3(O)C[C@H](OC(=O)[C@H](O)[C@@H](NC(=O)c4ccccc4)c4ccccc4)C(C)=C1C3(C)C)[C@]1(OC(C)=O)CO[C@@H]1C[C@@H]2O` [taxol], in the assay on breast tumor cells, the “number of apoptotic tumor cells” value was “dramatic increase”.
As to endostatin, in the assay with tumor cells (>60 mg vs <60 mg, 95% CI (0.00,0.47), p=0.050, significant), the “difference in change of tumor cell death between doses” value was determined as 0.23. Also, the “change in tumor cell death” value was determined as 0.02 in the assay on tumor cells (dose of <60 mg) and 0.26 in the assay on tumor cells (dose of >60 mg). The apoptotic tumor cells result in the assay on tumor cells (patients treated for two months, pre vs post-treatment (FIG. 10)) is on record as “two out of four patients had a dramatic increase”. The “decrease of endothelial cell density (ED)” value with endothelial cells was 1.3 fold. Moreover, the “effect of dosing on blood vessel density” value in the assay with tumor vasculature [3] (<60 mg vs >60 mg) is “not significant”. Moreover, the blood vessel density result with tumor vasculature [3] (Patient 1, treated for two months (FIG. 13)) is reported as “dramatic decrease”. In the assay with tumor vasculature [3] (patient biopsy post-treatment with endostatin, pre-treatment BVD 53%), the BVD post-treatment was 28%. The “effect of dosing on tumor endothelial cell death” value in the assay on tumor endothelial cells [4] (<60 mg vs >60 mg) is on record as “not significant”. For the same compound, the apoptotic endothelial cells entry with tumor endothelial cells [4] (patients treated for two months, pre vs post-treatment (FIG. 11)) is “two out of four patients had a dramatic increase”.
